In patent publication US11976083B2, “Inhibitors of peptidylarginine deiminases” (Gilead Sciences, Inc., priority 2020, dated 2024):

Each molecule was assayed against T1, human PAD4 (Homo sapiens, UniProt Q9UM07) (assay: In vitro PAD4 BAEE biochemical assay). Settings: BAEE substrate 3 mM, 5 nM PAD4, 2 mM calcium chloride; geometric mean of multiple experiments.
T1 construct: human PAD4 (NM_012387), A2-P663, was PCR amplified; His-SUMO (N, cleaved yes); made in house; host or cells: E. coli BL21(DE3)
T1 sequence (Q9UM07 2-663): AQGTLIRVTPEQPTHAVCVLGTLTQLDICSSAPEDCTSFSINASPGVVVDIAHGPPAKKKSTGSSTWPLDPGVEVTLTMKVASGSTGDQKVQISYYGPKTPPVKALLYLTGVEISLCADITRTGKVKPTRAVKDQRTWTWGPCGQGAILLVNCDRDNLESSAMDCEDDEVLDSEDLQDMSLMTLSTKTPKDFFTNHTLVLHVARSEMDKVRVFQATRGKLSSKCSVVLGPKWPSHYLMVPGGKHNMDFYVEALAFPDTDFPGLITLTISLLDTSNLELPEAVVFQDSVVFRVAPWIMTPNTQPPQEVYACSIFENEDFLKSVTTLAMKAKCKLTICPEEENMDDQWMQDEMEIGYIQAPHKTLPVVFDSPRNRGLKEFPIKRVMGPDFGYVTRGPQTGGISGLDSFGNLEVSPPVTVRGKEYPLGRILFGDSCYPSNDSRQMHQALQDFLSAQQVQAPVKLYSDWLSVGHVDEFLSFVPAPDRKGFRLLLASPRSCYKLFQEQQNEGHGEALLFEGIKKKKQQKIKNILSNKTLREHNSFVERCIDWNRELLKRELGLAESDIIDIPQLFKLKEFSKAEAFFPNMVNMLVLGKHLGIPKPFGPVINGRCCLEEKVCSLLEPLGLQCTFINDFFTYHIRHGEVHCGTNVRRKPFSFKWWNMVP
Procedure, shortened: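 Fluorescence read-out (ex 405/em 535 nm) of isoindole formed from ammonia, o-phthalaldehyde and DTT after EDTA stop. Reaction: 5 nM PAD4, 2 mM CaCl2, 3 mM BAEE, 2 h, 25 °C, after 30 min enzyme–compound preincubation. Normalised to BB-Cl-Amidine (50 µM) and DMSO controls.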
Work on `COc1cc(C(=O)N2CC[C@@H](OC(F)F)[C@@H](N)C2)cc2nc(-c3cc4ccc5nc4n3CC(F)(F)CCCCC3(CC(F)(F)C3)C(=O)N[C@@H]5C)n(C)c12` [Example 822, (11~{R})-17-[5-[(3~{S},4~ {R})-3-amino-4-(difluoromethoxy)piperidine-1-carbonyl]-7-methoxy-1-methyl-benzimidazol-2-yl]-1′,1′,3,3-tetrafluoro-11-methyl-spiro [1,10,19-triazatricyclo [10.5.2.0^{15,18}]nonadeca-12(19),13,15(18),16-tetraene-8,3′-cyclobutane]-9-one] yielded an IC50 of 205 nM.
`COc1cc(C(=O)N2CC[C@@H](OC)[C@@H](N)C2)cc2nc(-c3cc4ccc5nc4n3CC(F)(F)CCCCC3(CC3)C(=O)N[C@@H]5C)n(C)c12` [Example 823, (11~{R})-17-[5-[(3~ {S},4~{R})-3-amino-4-methoxy-piperidine-1-carbonyl]-7-methoxy-1-methyl-benzimidazol-2-yl]-3,3-difluoro-11-methyl-spiro[1,10,19-triazatricyclo[10.5.2.0^ {15,18}]nonadeca-12 (19),13,15(18),16-tetraene-8,1′-cyclopropane]-9-one] was tested, and the IC50 was 146 nM.
`COc1cc(C(=O)N2CC[C@@H](OC(F)F)[C@@H](N)C2)cc2nc(-c3cc4ccc5nc4n3CCCCCc3nc4ccccc4nc3C(=O)N[C@@H]5C)n(C)c12` [Example 824, (2~{R})-21-[5-[(3~{S},4~{R})-3-amino-4-(difluoromethoxy)piperidine-1-carbonyl]-7-methoxy-1-methyl-benzimidazol-2-yl]-2-methyl-3,6,13,20,26-pentazapentacyclo [18.5.2.0^{5,14).0^{7, 12}.0^{23,27}]heptacosa-1(26),5,7(12),8,10,13,21, 23(27),24-nonaen-4-one] showed an IC50 of 43 nM.
`COc1cc(C(=O)N2CC[C@@H](OC)[C@@H](N)C2)cc2nc(-c3cc4ccc5nc4n3CCCCCc3ccnc(F)c3C(=O)N[C@@H]5C)n(C)c12` [Example 825, (2~{R})-17-[5-[(3~{S},4~ {R})-3-amino-4-methoxy-piperidine-1-carbonyl]-7-methoxy-1-methyl-benzimidazol-2-yl]-6-fluoro-2-methyl-3,7,16,22-tetrazatetracyclo[14.5.2.0^ {5,10}.0^{19,23}]tricosa-1(21),5,7,9,17,19,22-heptaen-4-one] was tested, and the IC50 was 38 nM.
`C[C@H]1NC(=O)[C@@H]2C[C@H]2CCCCCn2c(-c3nc4cc(C(=O)N[C@H]5CNCC[C@@H]5F)c(F)cc4n3[C@H]3C[C@H]3F)cc3ccc1nc32` [Example 826, 6-fluoro-1-[(1~{S},2~{R})-2-fluorocyclopropyl]-~{N}-[(3~{S),4~{S})-4-fluoro-3-piperidyl]-2-[(2~{R},5~{R},7~ {R})-2-methyl-4-oxo-3,13,19-triazatetracyclo [11.5.2.0^{5,7}.0^{16,20}]icosa-1(19),14,16(20),17-tetraen-14-yl]benzimidazole-5-carboxamide] was tested, and the IC50 was 31 nM.
For `CO[C@@H]1CCN(C(=O)c2cc3nc(-c4cc5ccc6nc5n4CCCCC[C@@H]4C[C@H]4C(=O)N[C@@H]6C)n([C@H]4C[C@H]4F)c3cc2F)C[C@@H]1N` [Example 827, (2~{R},5~{R},7~{R})-14-[5-[(3~{S},4~{R})-3-amino-4-methoxy-piperidine-1-carbonyl]-6-fluoro-1-[(1~{S},2~{R})-2-fluorocyclopropyl]benzimidazol-2-yl]-2-methyl-3,13,19-triazatetracyclo[11.5.2.0^ {5,7}.0^{16,20}]icosa-1(19),14,16(20),17-tetraen-4-one], the IC50 was 36 nM.
Work on `CO[C@@H]1CCN(C(=O)c2cc(F)c3c(c2)nc(-c2cc4ccc5nc4n2CCCCCc2nc4ccccc4nc2C(=O)N[C@@H]5C)n3C2CC2)C[C@@H]1N` [Example 828, (2~{R})-21-[5-[(3~{S), 4~{R})-3-amino-4-methoxy-piperidine-1-carbonyl]-1-cyclopropyl-7-fluoro-benzimidazol-2-yl]-2-methyl-3,6,13,20,26-pentazapentacyclo [18.5.2.0^{5,14}.0^{7, 12}.0^{23,27}]heptacosa-1(26),5(14),6,8,10,12,21,23(27), 24-nonaen-4-one] yielded an IC50 of 24 nM.
Molecule `CO[C@@H]1CCN(C(=O)c2cc(F)c3c(c2)nc(-c2cc4ccc5nc4n2CCCCCc2nc4ccccc4cc2C(=O)N[C@@H]5C)n3C2CC2)C[C@@H]1N` [Example 829, (2~{R})-21-[5-[(3~{S},4~ {R})-3-amino-4-methoxy-piperidine-1-carbonyl]-1-cyclopropyl-7-fluoro-benzimidazol-2-yl]-2-methyl-3,13,20,26-tetrazapentacyclo [18.5.2.0^{5,14}.0^{7,1 2}.0^{23,27}]heptacosa-1(26),5(14),6,8,10,12,21,23(27), 24-nonaen-4-one] has an IC50 of 15 nM.
With `C[C@@H]1[C@H](N)CCCN1C(=O)c1cc(F)c2c(c1)nc(-c1cc3ccc4nc3n1CCCCCc1nc3ccccc3cc1C(=O)N[C@@H]4C)n2C1CC1` [Example 830, (2~{R})-21-[5-[(2~{R}, 3~{R})-3-amino-2-methyl-piperidine-1-carbonyl]-1-cyclopropyl-7-fluoro-benzimidazol-2-yl]-2-methyl-3,13,20,26-tetrazapentacyclo[18.5.2.0^ {5,14}.0^{7,12}.0^ {23,27}]heptacosa-1(26),5(14),6,8,10,12,21, 23(27),24-nonaen-4-one] the IC50 was 19 nM.
In the case of `COc1cc(C(=O)N2CC[C@@H](OC)[C@@H](N)C2)cc2nc(-c3cc4ccc5nc4n3CCCCCc3nccc(Cl)c3C(=O)N[C@@H]5C)n(C)c12` [Example 831, (2~{R})-17-[5-[(3~{S}, 4~{R})-3-amino-4-methoxy-piperidine-1-carbonyl]-7-methoxy-1-methyl-benzimidazol-2-yl]-6-chloro-2-methyl-3,9,16,22-tetrazatetracyclo [14.5.2.0^{5,10}.0^{19,23}] tricosa-1(22),5(10),6,8, 17,19(23),20-heptaen-4-one], the IC50 is reported as 75 nM.
`C[C@@H]1c2ccc3cc(-c4nc5cc(C(=O)N6CCC[C@@H](N)[C@H]6C)cc(F)c5n4C4CC4)n(c3n2)CCCCCc2nc3ccccc3cc2C(=O)N1C` [Example 832, (2~{R})-21-[5-[(2~{R},3~{R})-3-amino-2-methyl-piperidine-1-carbonyl]-1-cyclopropyl-7-fluoro-benzimidazol-2-yl]-2,3-dimethyl-3,13,20,26-tetrazapentacyclo[18.5.2.0^ {5,14}.0^{7,12}.0^ {23,27}]heptacosa-1(26), 5(14),6,8,10,12,21,23(27), 24-nonaen-4-one] showed an IC50 of 13 nM.
`CO[C@@H]1CCN(C(=O)c2cc(F)c3c(c2)nc(-c2cc4ccc5nc4n2CCCCCc2nc4ccccc4cc2C(=O)N(C)[C@@H]5C)n3C2CC2)C[C@@H]1N` [Example 833, (2~{R})-21-[5-[(3~{S},4~ {R})-3-amino-4-methoxy-piperidine-1-carbonyl]-1-cyclopropyl-7-fluoro-benzimidazol-2-yl]-2,3-dimethyl-3,13,20,26-tetrazapentacyclo[18.5.2.0^ {5,14).0^{7,12}.0^ {23,27}]heptacosa-1(26),5(14),6,8,10,12, 21,23(27),24-nonaen-4-one] gave an IC50 of 61 nM.
